Results reported in patent publication US20060258581A1, “Methods and composition for derepressions of IAP-inhibited caspase” (priority 2001, published 2006).
Where two headings read alike, the source gives them in different places. Where a SMILES comes first, the peptide text is derived from it. [ ]: non-standard residue; d: D form. The star is where a group is joined. Phe(4-Cl) = N[C@@H](Cc1ccc(Cl)cc1)C(=O)O; 2Nal = N[C@@H](Cc1ccc2ccccc2c1)C(=O)O; Fmoc = O=C(OCC1c2ccccc2-c2ccccc21)*; 2Thi = N[C@@H](Cc1cccs1)C(=O)O

Key:
[1] = tested on: ALVA31 prostate cancer cells; test: ALVA31 prostate cancer cell viability (XTT dye-reduction, trypan blue); type: cell-based; conditions: 24 hrs; for cell viability, compound alone: peptides 40 μM, VP-16 100 μM; for tumor cell killing, combination with VP-16: peptide 40 μM with VP-16 100 μM
Protocol: The in vivo effects of TPI 792-33 or TPI 792-35, either individually or in combination with the cytotoxic anticancer drug VP-16 (etoposide), on derepression of XIAP-inhibited caspase and viability of ALVA31 cells was determined as follows. ALVA31 prostate cancer cells were seeded onto 96 well plates (10^4 cells/well) in 100 μL RPMI containing 2.5% fetal bovine serum (FBS). […] After another 24 hrs-incubation, cell viability was measured by the XTT dye-reduction assay (Roche, Molecular Biochemicals; Indianapolis, Ind.) and trypan blue dye exclusion assay.

[2] = molecular target: T1, XIAP-inhibited caspase-3 (Homo sapiens, UniProt P98170); test: IAP derepression assay: Ac-DEVD-AFC hydrolysis by caspase-3 in the presence of GST-XIAP; type: biochemical; conditions: for activity in the caspase derepression assay using full length XIAP: in words; for Activity* (relative caspase-3 activity: Vmax in the presence of compound / Vmax of controls having caspase-3 and XIAP): XIAP derepression assay
T1 construct: in a caspase derepression assay using full length XIAP; made in house; host or cells: bacteria
Protocol: The ratio of Vmax for hydrolysis of Ac-DEVD-AFC in the presence and absence of the candidate mixture was calculated and used to identify those that contain an agent that derepresses an IAP-inhibited caspase.
Each mixture was aliquoted in a 25 microliter volume and in duplicate to a well of a 96 well microtiter plate. […] Fluorescence of liberated AFC was immediately detected from each well for 30 minutes at 30 second intervals. The Vmax for hydrolysis of AC-DEVD-AFC from each well was measured using the softmax software package.

[3] = molecular target: full length XIAP (Homo sapiens, UniProt P98170); test: Potency of IAP antagonists in vitro (Table VIII; caspase derepression / SMAC competition with full length XIAP); conditions: for Relative Potency (fold versus SMAC peptide): SMAC AVPI tetrapeptide = 1.0; for EC50: amount of compound necessary to restore caspase-3 activity to 50% of Vmax
[4] = molecular target: XIAP (Homo sapiens, UniProt P98170); test: SMAC binding/competition assay: biotinylated SMAC 7-mer on NeutrAvidin plates, GST-XIAP detected by anti-GST; conditions: in words
Protocol: Peptide compounds containing unnatural amino acids in the 792 series, 792-33 and 792-35 (see FIG. 12 and 20 and Example XI), and an active compound in the TPI 1332 series, TPI 1332-69, were tested for binding activity in the SMAC binding assay as described above in Example X. For this assay, biotinylated SMAC 7-mer peptide (50 ng) was bound to 96 well plates coated with NeutrAvidin (Pierce, Rockford, Ill.) at 1 mg/ml in 100 μl per well of 50 mM HEPES pH 7.4, 100 mM NaCl 1 mM EDTA, 10% sucrose, 0.1% CHAPS, 10 mM DTT.

[5] = tested on: Jurkat leukemia cells; test: Jurkat leukemia cell death, Annexin V/propidium iodide flow cytometry; type: cell-based; conditions: for cells killed: one day treatment
Protocol: The following assay was used to test the ability of individual compounds from the TPI 1396 and TPI 1391 libraries to induce apoptosis of cultured tumor cell lines. Each of the compounds listed in Table IX was individually added to Jurkat leukemia cells (6.25×10^5 cells/mL) in RPMI containing 2.5% FBS at various concentrations for 20 hours. After incubation, cells were washed and stained with FITC-conjugated Annexin V antibody and propidium iodide (Biovision; Mountain View, Calif.). Cells were incubated for 20 minutes at room temperature in the dark and fluorescence was measured by flow cytometry (FACScan, Immunocytometry system; Becton-Dickinson; San Jose, Calif.). Cells staining positive for Annexin V were deemed non-viable.
The TPI I396-34 and TPI 1391-28 compounds were further tested as set forth below.

[6] = tested on: normal bone marrow mononuclear cells; test: Normal bone marrow mononuclear cells versus Jurkat, Annexin V, 20 hours; type: cell-based; conditions: 5 μM
Protocol: After incubation, cells were washed, stained with FITC-conjugated Annexin V antibody and propidium iodide, and fluorescence measured by flow cytometry as described above.

full length XIAP, sequence (P98170 whole entry): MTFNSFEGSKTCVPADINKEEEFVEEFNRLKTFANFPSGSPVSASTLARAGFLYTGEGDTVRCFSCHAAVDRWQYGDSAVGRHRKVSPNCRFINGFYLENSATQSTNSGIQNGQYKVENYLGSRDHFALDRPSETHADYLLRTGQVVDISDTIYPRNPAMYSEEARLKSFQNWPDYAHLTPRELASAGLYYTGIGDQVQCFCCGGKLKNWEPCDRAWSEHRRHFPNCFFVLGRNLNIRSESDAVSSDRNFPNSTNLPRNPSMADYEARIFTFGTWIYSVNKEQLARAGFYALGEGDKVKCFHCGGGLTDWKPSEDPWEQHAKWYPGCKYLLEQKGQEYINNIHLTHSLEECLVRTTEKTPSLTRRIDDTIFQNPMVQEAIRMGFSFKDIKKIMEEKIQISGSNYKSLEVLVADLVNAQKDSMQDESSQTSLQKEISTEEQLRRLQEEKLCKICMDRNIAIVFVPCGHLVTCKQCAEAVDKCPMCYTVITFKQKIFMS
T1 sequence (P98170 whole entry): as above
XIAP, sequence (P98170 whole entry): as above

Relative Potency (fold versus SMAC peptide) [3]	Structure (SMILES)	% nonviable cells ([5]; 1 µM)	% nonviable cells ([5]; 10 µM)	% nonviable cells ([5]; 25 µM)	% nonviable cells ([5]; 50 µM)	further results
5.2	N[C@@H](Cc1cccs1)C(=O)N[C@@H](Cc1ccc2ccccc2c1)C(=O)N[C@@H](Cc1ccc(Cl)cc1)C(=O)N[C@@H](CCCCNC(=O)OCC1c2ccccc2-c2ccccc21)C(=O)O [TPI 792-33, L-3-(2-thienyl)-alanyl-L-(2-naphthyl)-alanyl-L-p-chloro-phenylalanyl-L-(e-fluorenylmethyloxycarbonyl)-lysine] (H-[2Thi][2Nal][Phe(4-Cl)]K(Fmoc)-OH)	–	–	–	–	cell viability, compound alone [1]: reduced viability of these prostate cancer cells by nearly half; tumor cell killing, combination with VP-16 [1]: more potent tumor cell killing compared to VP-16 alone; LC (lowest concentration with a ratio of 2 or higher in the derepression assay) [2]: 0.4 micrograms per milliliter; activity in the caspase derepression assay using full length XIAP [2]: activity; LC (lowest concentration with a ratio of 2 or higher in the derepression assay) ([2]; tested at 0.4, 2, 10 and 50): 0.4 µg/mL; competition with XIAP binding to the SMAC peptide (SMAC competition assay) [4]: activity
2.5	N[C@@H](Cc1cccs1)C(=O)N[C@@H](Cc1ccc2ccccc2c1)C(=O)N[C@H](CCCCNC(=O)OCC1c2ccccc2-c2ccccc21)C(=O)N[C@@H](CCCCNC(=O)OCC1c2ccccc2-c2ccccc21)C(=O)O [TPI 792-35, L-3-(2-thienyl)-alanyl, L-(2-naphthyl)-alanyl-D-(e-fluorenylmethyloxycarbonyl)-lysyl-L-(e-fluorenylmethyloxycarbonyl)-lysine] (H-[2Thi][2Nal][dK](Fmoc)K(Fmoc)-OH)	–	–	–	–	cell viability, compound alone [1]: reduced viability of these prostate cancer cells by nearly half; tumor cell killing, combination with VP-16 [1]: more potent tumor cell killing compared to VP-16 alone; activity in the caspase derepression assay using full length XIAP [2]: activity; LC (lowest concentration with a ratio of 2 or higher in the derepression assay) ([2]; tested at 0.4, 2, 10 and 50): 2 µg/mL; competition with XIAP binding to the SMAC peptide (SMAC competition assay) [4]: activity
3.7	CCCCCCCN1C(=O)C(=O)N([C@H](CCCC)CNCc2ccccc2)C[C@@H]1Cc1ccc2ccccc2c1 [TPI 1391-21]	16%	44%	91%	94%	EC50 [3]: 33.6 µM
5	CC(C)C[C@@H]1CN([C@H](CNCc2ccccc2)Cc2ccc3ccccc3c2)C(=O)C(=O)N1CCc1cccc(C(F)(F)F)c1 [TPI 1391-28]	19%	55%	87%	91%	toxicity to normal bone marrow cells [6]: little toxicity; cells killed ([5]; 5 μM): about 45%; cells killed ([5]; 8 μM): ~80%; EC50 ([5]; one-day exposure, read-out: EC50 for killing Jurkat leukemia cells): ~6.5 µM; EC50 [3]: 25.1 µM
3.3	O=C1C(=O)N([C@H](CNCc2ccccc2)Cc2ccc3ccccc3c2)C[C@H](Cc2ccc3ccccc3c2)N1CCc1cccc(C(F)(F)F)c1 [TPI 1391-34]	–	–	–	–	EC50 [3]: 39.4 µM

Further lines, the molecule ahead of its results:

Structure (SMILES)	Relative Potency (fold versus SMAC peptide) [3]	% nonviable cells ([5]; 1 µM)	% nonviable cells ([5]; 10 µM)	% nonviable cells ([5]; 25 µM)	% nonviable cells ([5]; 50 µM)	further results
CCCC[C@@H](CNCc1ccccc1)N1C[C@@H](CC(C)C)N(CC(C)c2ccc(CC(C)C)cc2)C(=O)C1=O (stereo partly drawn) [TPI 1391-1]	–	18%	20%	69%	91%	–
CCCC[C@@H](CNCc1ccccc1)N1C[C@@H](CC(C)C)N(CCc2cccc(C(F)(F)F)c2)C(=O)C1=O [TPI 1391-4]	–	20%	48%	90%	86%	–
CCCC[C@@H](CNCc1ccccc1)N1C[C@@H](CC(C)C)N(CC2CCC(C(C)(C)C)CC2)C(=O)C1=O (stereo partly drawn) [TPI 1391-5]	–	17%	36%	88%	88%	–
CCCC[C@H](CNCc1ccccc1)N1C[C@@H](CC(C)C)N(CC2CCC(C(C)(C)C)CC2)C(=O)C1=O (stereo partly drawn) [TPI 1391-17]	–	13%	45%	88%	91%	% nonviable cells ([5]; 5 µM): 25%
CC(C)Cc1ccc(C(C)CN2C(=O)C(=O)N([C@H](CNCc3ccccc3)Cc3ccc4ccccc4c3)C[C@H]2CC(C)C)cc1 (stereo partly drawn) [TPI 1391-25]	–	16%	60%	90%	87%	–
COc1ccc(CCN(CCCC[C@@H](CN(C(=O)Nc2ccccc2)[C@@H](CNC(=O)Nc2ccccc2)CC2CCCCC2)N(C)C(=O)Nc2ccccc2)C(=O)Nc2ccccc2)cc1 [TPI 1396-25]	–	–	–	–	–	Activity* (relative caspase-3 activity: Vmax in the presence of compound / Vmax of controls having caspase-3 and XIAP) [2]: 1.6
COc1ccc(CCN(C(=O)Nc2ccccc2)[C@H](Cc2ccccc2)CN(C(=O)Nc2ccccc2)[C@@H](CNC(=O)Nc2ccccc2)CC2CCCCC2)cc1 [TPI 1396-31]	–	–	–	–	–	Activity* (relative caspase-3 activity: Vmax in the presence of compound / Vmax of controls having caspase-3 and XIAP) [2]: 1.3
